This note sets out measurements from the supplement of paper PMC10307832.

What all share (test): relative viability (nuclei count vs DMSO), 5 days (fraction); higher = more cells survive
Compound in assay [1]: C1CNCCC1C2=CC(=NN2)C3=CC=NC=C3 + CC(=O)c1c(C)c2cnc(Nc3ccc(N4CCNCC4)cn3)nc2n(C2CCCC2)c1=O [Palbociclib] (partner 0.5 µM)
In outline: (§1)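 Dosing by pin tool came one day after lung cancer cell lines were seeded in 1536-well plates, using either one drug or a fixed anchor-drug dose plus five library-drug doses (not always all listed) in √10 steps. After 5 days, nuclei were counted on 4× images. Relative viability is treated-well nuclei count divided by vehicle-well nuclei count, and values are medians of duplicate plates.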

Compound in assay [2]: C1CNCCC1C2=CC(=NN2)C3=CC=NC=C3 + CC(C)C[C@H](NC(=O)[C@H](Cc1ccccc1)NC(=O)c1cnccn1)B(O)O [Bortezomib] (partner 0.002 µM)
In outline:
as §1

Compound in assay [3]: C[C@@H](N)c1ccc(C(=O)Nc2ccnc3[nH]ccc23)cc1 + C[C@]1(O)C[C@@H](c2nc(-c3ccc4ccc(-c5ccccc5)nc4c3)c3c(N)nccn32)C1 [Linsitinib] (partner 1 µM)
A digest of the protocol:
as §1

Compound in the assay “Tanzisertib + OSI-027”: O[C@H]1CC[C@H](Nc2ncc3nc(Nc4c(F)cc(F)cc4F)n([C@H]4CCOC4)c3n2)CC1 [Tanzisertib] + COc1cccc2cc(-c3nc([C@H]4CC[C@H](C(=O)O)CC4)n4ncnc(N)c34)[nH]c12 [OSI-027] (partner 0.5 µM)
A digest of the protocol: as §1

Take PC-3 [JPC-3]: the relative viability was 0.547 in assay [1] (first compound 0.08 µM); 0.495 in assay [1] (first compound 0.8 µM); 0.558 in assay [1] (first compound 2.53 µM); 0.541 in assay [1] (first compound 8 µM); 0.845 in assay [2] (first compound 0.08 µM); 0.814 in assay [2] (first compound 0.8 µM). Moreover, the relative viability turned out to be 0.811 in assay [2] (first compound 2.53 µM); 0.793 in assay [2] (first compound 8 µM); 0.963 in assay [3] (first compound 0.04 µM); 1.05 in assay [3] (first compound 0.1265 µM); 0.978 in assay [3] (first compound 0.4 µM); 1 in assay [3] (first compound 1.265 µM). Besides, the relative viability in assay [3] (first compound 4 µM) was 0.879; with Tanzisertib + OSI-027 (first compound 0.08 µM), 0.862; in the assay with Tanzisertib + OSI-027 (first compound 0.253 µM) it was 0.721; in the assay with Tanzisertib + OSI-027 (first compound 0.8 µM) it was 0.833; in the assay with Tanzisertib + OSI-027 (first compound 2.53 µM) it was 0.789; in the assay with Tanzisertib + OSI-027 (first compound 8 µM), 0.699.
As to PC-14, the relative viability in assay [1] (first compound 0.08 µM) was found to be 0.531; in assay [1] (first compound 0.8 µM), 0.585; in assay [1] (first compound 2.53 µM), 0.613; in assay [1] (first compound 8 µM) it was 0.468; in assay [2] (first compound 0.08 µM), 0.897; in assay [2] (first compound 0.8 µM), 0.951. Also, the relative viability turned out to be 0.945 in assay [2] (first compound 2.53 µM); 0.789 in assay [2] (first compound 8 µM); 0.927 in assay [3] (first compound 0.04 µM); 0.907 in assay [3] (first compound 0.1265 µM); 0.924 in assay [3] (first compound 0.4 µM); 0.819 in assay [3] (first compound 1.265 µM). The relative viability in assay [3] (first compound 4 µM) was 0.725; with Tanzisertib + OSI-027 (first compound 0.08 µM), 1.28; with Tanzisertib + OSI-027 (first compound 0.253 µM), 0.745; with Tanzisertib + OSI-027 (first compound 0.8 µM) it was 0.723; with Tanzisertib + OSI-027 (first compound 2.53 µM), 0.816; with Tanzisertib + OSI-027 (first compound 8 µM), 0.427.
Consider RERF-LC-KJ, for which the relative viability in assay [1] (first compound 0.08 µM) was determined as 0.989; in assay [1] (first compound 0.8 µM), 1.14; in assay [1] (first compound 2.53 µM), 1.11; in assay [1] (first compound 8 µM) it was 1.06; in assay [2] (first compound 0.08 µM), 1.09; in assay [2] (first compound 0.8 µM), 1.22. In addition, the relative viability in assay [2] (first compound 2.53 µM) stood at 1.16; in assay [2] (first compound 8 µM), 1.12; in assay [3] (first compound 0.04 µM) it was 0.896; in assay [3] (first compound 0.1265 µM), 0.871; in assay [3] (first compound 0.4 µM) it was 0.998; in assay [3] (first compound 1.265 µM), 0.944. For the same cell line, the relative viability in assay [3] (first compound 4 µM) stood at 0.861; in the assay with Tanzisertib + OSI-027 (first compound 0.08 µM), 0.625; with Tanzisertib + OSI-027 (first compound 0.253 µM) it was 0.566; in the assay with Tanzisertib + OSI-027 (first compound 0.8 µM), 0.598; in the assay with Tanzisertib + OSI-027 (first compound 2.53 µM), 0.503; in the assay with Tanzisertib + OSI-027 (first compound 8 µM), 0.489.
Take SK-LU-1: the relative viability came to 0.418 in assay [1] (first compound 0.08 µM); 0.348 in assay [1] (first compound 0.8 µM); 0.43 in assay [1] (first compound 2.53 µM); 0.397 in assay [1] (first compound 8 µM); 1 in assay [2] (first compound 0.08 µM); 1.38 in assay [2] (first compound 2.53 µM). In addition, the relative viability amounted to 1.27 in assay [2] (first compound 8 µM); 1.09 in assay [3] (first compound 0.04 µM); 1.1 in assay [3] (first compound 0.1265 µM); 1.19 in assay [3] (first compound 0.4 µM); 0.956 in assay [3] (first compound 1.265 µM); 0.637 in assay [3] (first compound 4 µM). For the same cell line, the relative viability was 0.392 with Tanzisertib + OSI-027 (first compound 0.08 µM); 0.324 in the assay with Tanzisertib + OSI-027 (first compound 0.253 µM); 0.319 with Tanzisertib + OSI-027 (first compound 0.8 µM); 0.354 with Tanzisertib + OSI-027 (first compound 2.53 µM); 0.365 in the assay with Tanzisertib + OSI-027 (first compound 8 µM).
As to SW 1573, the relative viability in assay [1] (first compound 0.8 µM) was 0.471; in assay [1] (first compound 2.53 µM), 0.405; in assay [1] (first compound 8 µM), 0.411; in assay [2] (first compound 0.08 µM) it was 0.75; in assay [2] (first compound 0.8 µM), 1.22; in assay [2] (first compound 2.53 µM), 1.11. In addition, the relative viability worked out at 1.12 in assay [2] (first compound 8 µM); 0.763 in assay [3] (first compound 0.04 µM); 0.873 in assay [3] (first compound 0.1265 µM); 0.82 in assay [3] (first compound 0.4 µM); 0.861 in assay [3] (first compound 1.265 µM); 0.622 in assay [3] (first compound 4 µM). Also, the relative viability in the assay with Tanzisertib + OSI-027 (first compound 0.08 µM) was 0.829; in the assay with Tanzisertib + OSI-027 (first compound 0.253 µM), 0.594; in the assay with Tanzisertib + OSI-027 (first compound 0.8 µM), 0.558; in the assay with Tanzisertib + OSI-027 (first compound 2.53 µM), 0.592; with Tanzisertib + OSI-027 (first compound 8 µM), 0.484.
